Measurements published in BigSolDB 2.1.

O=P(Oc1ccccc1)(Oc1ccccc1)Oc1ccc(OP(=O)(Oc2ccccc2)Oc2ccccc2)cc1
solubility (mole fraction) (in acetone, 293.25 K): 0.0058
solubility (mole fraction) (in acetone, 298.15 K): 0.00849
solubility (mole fraction) (in acetone, 303.45 K): 0.0121
solubility (mole fraction) (in acetone, 308.15 K): 0.0171
solubility (mole fraction) (in acetone, 313.25 K): 0.0237
solubility (mole fraction) (in acetone, 318.15 K): 0.0332
solubility (mole fraction) (in acetone, 323.45 K): 0.0442
solubility (mole fraction) (in acetonitrile, 293.25 K): 0.00142
solubility (mole fraction) (in acetonitrile, 298.15 K): 0.00218
solubility (mole fraction) (in acetonitrile, 303.25 K): 0.0034
solubility (mole fraction) (in acetonitrile, 308.25 K): 0.00546
solubility (mole fraction) (in acetonitrile, 313.25 K): 0.00807
solubility (mole fraction) (in acetonitrile, 318.15 K): 0.0117
solubility (mole fraction) (in acetonitrile, 323.25 K): 0.0173
solubility (mole fraction) (in acetonitrile, 328.15 K): 0.0246
solubility (mole fraction) (in acetonitrile, 333.25 K): 0.0357
solubility (mole fraction) (in diethyl ether, 288.25 K): 0.00064
solubility (mole fraction) (in diethyl ether, 293.25 K): 0.00081
solubility (mole fraction) (in diethyl ether, 298.15 K): 0.00101
solubility (mole fraction) (in diethyl ether, 303.25 K): 0.00127
solubility (mole fraction) (in ethanol, 293.25 K): 0.00037
solubility (mole fraction) (in ethanol, 298.15 K): 0.00062
solubility (mole fraction) (in ethanol, 303.35 K): 0.00097
solubility (mole fraction) (in ethanol, 308.25 K): 0.00156
solubility (mole fraction) (in ethanol, 313.25 K): 0.00238
solubility (mole fraction) (in ethanol, 318.25 K): 0.00356
solubility (mole fraction) (in ethanol, 323.25 K): 0.00528
solubility (mole fraction) (in ethanol, 328.15 K): 0.00807
solubility (mole fraction) (in ethanol, 333.25 K): 0.0115
solubility (mole fraction) (in ethyl acetate, 293.25 K): 0.00423
solubility (mole fraction) (in ethyl acetate, 298.15 K): 0.00605
solubility (mole fraction) (in ethyl acetate, 303.35 K): 0.00865
solubility (mole fraction) (in ethyl acetate, 308.25 K): 0.0123
solubility (mole fraction) (in ethyl acetate, 313.25 K): 0.0169
solubility (mole fraction) (in ethyl acetate, 318.15 K): 0.0226
solubility (mole fraction) (in ethyl acetate, 323.25 K): 0.0308
solubility (mole fraction) (in ethyl acetate, 328.15 K): 0.0419
solubility (mole fraction) (in ethyl acetate, 333.25 K): 0.0553
solubility (mole fraction) (in isopropanol, 293.15 K): 0.00013
solubility (mole fraction) (in isopropanol, 298.23 K): 0.00024
solubility (mole fraction) (in isopropanol, 303.25 K): 0.00041
solubility (mole fraction) (in isopropanol, 308.15 K): 0.00071
solubility (mole fraction) (in isopropanol, 313.35 K): 0.00125
solubility (mole fraction) (in isopropanol, 318.15 K): 0.00211
solubility (mole fraction) (in isopropanol, 323.17 K): 0.00346
solubility (mole fraction) (in isopropanol, 328.15 K): 0.00544
solubility (mole fraction) (in isopropanol, 333.25 K): 0.00933
solubility (mole fraction) (in methanol, 293.25 K): 0.00022
solubility (mole fraction) (in methanol, 298.15 K): 0.0004
solubility (mole fraction) (in methanol, 303.25 K): 0.00069
solubility (mole fraction) (in methanol, 308.15 K): 0.00118
solubility (mole fraction) (in methanol, 313.25 K): 0.00205
solubility (mole fraction) (in methanol, 318.15 K): 0.0034
solubility (mole fraction) (in methanol, 323.45 K): 0.00597
solubility (mole fraction) (in methyl acetate, 293.25 K): 0.00522
solubility (mole fraction) (in methyl acetate, 298.25 K): 0.00729
solubility (mole fraction) (in methyl acetate, 303.25 K): 0.0106
solubility (mole fraction) (in methyl acetate, 308.15 K): 0.0144
solubility (mole fraction) (in methyl acetate, 313.15 K): 0.0203
solubility (mole fraction) (in methyl acetate, 318.15 K): 0.0275
solubility (mole fraction) (in methyl acetate, 323.45 K): 0.0369
solubility (mole fraction) (in n-propanol, 293.15 K): 0.00025
solubility (mole fraction) (in n-propanol, 298.17 K): 0.00046
solubility (mole fraction) (in n-propanol, 303.25 K): 0.00078
solubility (mole fraction) (in n-propanol, 308.15 K): 0.00127
solubility (mole fraction) (in n-propanol, 313.24 K): 0.00215
solubility (mole fraction) (in n-propanol, 318.18 K): 0.0035
solubility (mole fraction) (in n-propanol, 323.25 K): 0.00558
solubility (mole fraction) (in n-propanol, 328.15 K): 0.00884
solubility (mole fraction) (in n-propanol, 333.24 K): 0.0136
solubility (mole fraction) (in toluene, 293.15 K): 0.00378
solubility (mole fraction) (in toluene, 298.25 K): 0.00543
solubility (mole fraction) (in toluene, 303.35 K): 0.00795
solubility (mole fraction) (in toluene, 308.15 K): 0.0114
solubility (mole fraction) (in toluene, 313.25 K): 0.0154
solubility (mole fraction) (in toluene, 318.18 K): 0.0219
solubility (mole fraction) (in toluene, 323.25 K): 0.0303
solubility (mole fraction) (in toluene, 328.16 K): 0.0402
solubility (mole fraction) (in toluene, 333.25 K): 0.0556
